The text below walks through data of US9120774B2 (University of Kansas, priority 2009, dated 2015).

Like-named read-outs stand apart in the source and are kept apart here.

What all share (assay type): cell-based
The test system of test [1] is MCF-7 (estrogen receptor positive breast cancer cells). Nature of the test: Anti-proliferation activity against MCF-7 cells (MTS/PMS). As to conditions: for IC50: Homo sapiens, MCF7. How it is done:
(§1) Upon completion of synthesis of library of compounds in Examples 23 and 24, the compounds were evaluated for anti-proliferative activity against SkBr3 (Her2 overexpressing breast cancer cells), MCF-7 (estrogen receptor positive breast cancer cells), HCT-116 (colon cancer cells characterized by wild-type p53), PL45 (pancreatic cancer cells), LNCaP (androgen sensitive prostate cancer cells) and PC-3 (androgen independent prostate cancer cells) cell lines.
(§2) Cells were maintained in a 1:1 mixture of Advanced DMEM/F12 (Gibco) supplemented with non-essential amino acids, L-glutamine (2 mM), streptomycin (500 ng/mL), penicillin (100 units/mL), and 10% FBS. Cells were grown to confluence in a humidified atmosphere (37° C., 5% CO2), seeded (2000/well, 100 μl) in 96-well plates, and allowed to attach overnight. Compound or GDA at varying concentrations in DMSO (1% DMSO final concentration) was added, and cells were returned to the incubator for 72 hours. At 72 hours, the number of viable cells was determined using an MTS/PMS cell proliferation kit (Promega) per the manufacturer's instructions. Cells incubated in 1% DMSO were used at 100% proliferation, and values were adjusted accordingly. IC50 values were calculated from separate experiments performed in triplicate using GraphPad Prism.
as §2, with “μg/mL),” for “ng/mL),”, “μL)” for “μl)”

Test [2] deals with LNCaP (androgen sensitive prostate cancer cells). Nature of the test: Anti-proliferation activity against LNCaP cells. As to conditions: Homo sapiens, LNCaP. How it is done: (§3) Upon completion of synthesis of library of compounds in Examples 23 and 24, the compounds were evaluated for anti-proliferative activity against SkBr3 (Her2 overexpressing breast cancer cells), MCF-7 (estrogen receptor positive breast cancer cells), HCT-116 (colon cancer cells characterized by wild-type p53), PL45 (pancreatic cancer cells), LNCaP (androgen sensitive prostate cancer cells) and PC-3 (androgen independent prostate cancer cells) cell lines. […] The monosubstituted benzamide variants improved activity.
as §2

Test [3] relates to SkBr3 (Her2 overexpressing breast cancer cells). The test can be described thus: Anti-proliferation activity against SkBr3 cells (MTS/PMS). As to conditions: Homo sapiens, SK-BR-3. The method, then: as §1, §2
as §2, with “μg/mL),” for “ng/mL),”, “μL)” for “μl)”

Test [4] relates to PC-3 (androgen independent prostate cancer cells). Nature of the test: Anti-proliferation activity against PC-3 cells. The following applies: Homo sapiens, PC-3. How it is done: as §3
Cells were maintained in a 1:1 mixture of Advanced DMEM/F12 (Gibco) supplemented with non-essential amino acids, L-glutamine (2 mM), streptomycin (500 ng/mL), penicillin (100 units/mL), and 10% FBS. Cells were grown to confluence in a humidified atmosphere (37° C., 5% CO2), seeded (2000/well, 100 μl) in 96-well plates, and allowed to attach overnight. […] […] Cells incubated in 1% DMSO were used at 100% proliferation, and values were adjusted accordingly. IC50 values were calculated from separate experiments performed in triplicate using GraphPad Prism.

Test [5] has as its system HCT-116 (colon cancer cells characterized by wild-type p53). The test can be described thus: Anti-proliferation activity against HCT-116 cells. The following applies: Homo sapiens. The method, then:
as §3

In test [6] the test system is PL45 (pancreatic cancer cells). The test can be described thus: Anti-proliferation activity against PL45 cells. How it is done: as §3
The mark [7] stands for this setting: Table 6, 72 hours, MTS/PMS, mean ± standard deviation, read-out: IC50 MCF-7.
Where [8] appears, read: Table 6, 72 hours, MTS/PMS, mean ± standard deviation, read-out: IC50 LnCaP.
Setting [9] is: Table 6, 72 hours, MTS/PMS, mean ± standard deviation, read-out: IC50 SKBr3.
[10] abbreviates: Table 6, 72 hours, MTS/PMS, mean ± standard deviation, read-out: IC50 PC-3.
[11] abbreviates: Table 7, 72 hours, MTS/PMS, mean ± standard deviation, read-out: Anti-proliferation activity MCF-7.
Setting [12] is: Table 7, 72 hours, MTS/PMS, mean ± standard deviation, read-out: Anti-proliferation activity LnCaP.
The mark [13] stands for this setting: Table 7, 72 hours, MTS/PMS, mean ± standard deviation, read-out: Anti-proliferation activity SkBr3.
[14] abbreviates: Table 7, 72 hours, MTS/PMS, mean ± standard deviation, read-out: Anti-proliferation activity PC-3.
The mark [15] stands for this setting: Table 2, n = 3, read-out: IC50 MCF-7.
Setting [16] is: Table 2, n = 3, read-out: IC50 SkBr3.
The mark [17] stands for this setting: Table 2, n = 3, read-out: IC50 PC-3.
[18] abbreviates: Table 2, n = 3, read-out: IC50 LNCaP.

As for `COc1c(O[C@@H]2OC(C)(C)[C@H](OC)[C@@H](O)[C@H]2O)ccc2cc(NC(=O)c3cc4ccccc4[nH]3)c(=O)oc12` [26o, N-(7-((2S,3R,4S,5R)-3,4-dihydroxy-5-methoxy-6,6-dimethyltetrahydro-2H-pyran-2-yloxy)-8-methoxy-2-oxo-2H-chromen-3-yl)-1H-indole-2-carboxamide], the IC50 in test [1] (setting [7]) is more than 100 µM; in test [2] (setting [8]), more than 100 µM; in test [3] (setting [9]), 9.7 ± 1 µM; in test [4] (setting [10]), more than 100 µM.

Consider `CCc1c(O[C@@H]2OC(C)(C)[C@H](OC)[C@@H](O)[C@H]2O)ccc2cc(NC(=O)c3cc4ccccc4[nH]3)c(=O)oc12` [26p, N-(7-((2R,3R,4S,5R)-3,4-dihydroxy-5-methoxy-6,6-dimethyltetrahydro-2H-pyran-2-yloxy)-8-ethyl-2-oxo-2H-chromen-3-yl)-1H-indole-2-carboxamide], for which the IC50 was 4.3 ± 2.5 µM in test [1] (setting [7]), more than 100 µM in test [2] (setting [8]), 4.3 ± 3.4 µM in test [3] (setting [9]) and more than 100 µM in test [4] (setting [10]). The “fold less active than the 8-methyl derivative” value in test [1] (MCF-7 cells) is recorded as 7 fold.

With `COc1ccc(CN(C(=O)c2ccc(OC)c(-c3cccc(OC)c3)c2)c2cnc3cc(O[C@@H]4OC(C)(C)[C@H](OC)[C@@H](O)[C@H]4O)ccc3c2)cc1` [42a, N-(4-Methoxybenzyl)-N-(7-((2R,3R,4S,5R)-3,4-dihydroxy-5-methoxy-6,6-dimethyl-tetrahydro-2H-pyran-2-yloxy)quinolin-3-yl)-4-methoxy-3-(3-methoxyphenyl)-benzamide], the IC50 in test [1] (setting [11]), in test [2] (setting [12]), in test [3] (setting [13]) and in test [4] (setting [14]) was more than 100 µM in each case.

As to `COc1cccc(-c2cc(C(=O)Nc3cnc4cc(O[C@@H]5OC(C)(C)[C@H](OC)[C@@H](O)[C@H]5O)ccc4c3)ccc2OC)c1` [42b, N-(7-((2R,3R,4S,5R)-3,4-Dihydroxy-5-methoxy-6,6-dimethyl-tetrahydro-2H-pyran-2-yloxy)quinolin-3-yl)-4-methoxy-3-(3-methoxyphenyl)-benzamide], the IC50 in test [1] (setting [11]) turned out to be 13.1 ± 4.1 µM; in test [2] (setting [12]) it was 14.2 ± 0.4 µM; in test [3] (setting [13]), 16.5 ± 6.2 µM; in test [4] (setting [14]), 17.6 ± 4.6 µM.

As to `COc1ccc(CN(C(=O)c2ccc(OC)c(-c3cccc(OC)c3)c2)c2ccc3cc(O[C@@H]4OC(C)(C)[C@H](OC)[C@@H](O)[C@H]4O)ccc3c2)cc1` [42c, N-(4-Methoxybenzyl)-N-(6-((2R,3R,4S,5R)-3,4-dihydroxy-5-methoxy-6,6-dimethyl-tetrahydro-2H-pyran-2-yloxy)naphthalen-2-yl)-4-methoxy-3-(3-methoxyphenyl)-benzamide], the IC50 in test [1] (setting [11]), in test [2] (setting [12]), in test [3] (setting [13]) and in test [4] (setting [14]) was more than 100 µM in each case.

As to `COc1cccc(-c2cc(C(=O)Nc3ccc4cc(O[C@@H]5OC(C)(C)[C@H](OC)[C@@H](O)[C@H]5O)ccc4c3)ccc2OC)c1` [42d, N-(6-((2R,3R,4S,5R)-3,4-Dihydroxy-5-methoxy-6,6-dimethyl-tetrahydro-2H-pyran-2-yloxy)naphthalen-2-yl)-4-methoxy-3-(3-methoxyphenyl)-benzamide], the IC50 in test [1] (setting [11]) came to 46.4 ± 5.3 µM; in test [2] (setting [12]), 19.6 ± 1.6 µM; in test [3] (setting [13]), 38.9 ± 2.4 µM; in test [4] (setting [14]), 10.9 ± 0.7 µM.

As to `COc1ccccc1C(=O)Nc1cc2ccc(O[C@@H]3OC(C)(C)[C@H](OC)[C@@H](O)[C@H]3O)c(C)c2oc1=O` [compound 9, N-(7-((2R,3R,4S,5R)-3,4-Dihydroxy-5-methoxy-6,6-dimethyltetrahydro-2H-pyran-2-yloxy)-8-methyl-2-oxo-2H-chromen-3-yl)-2-methoxybenzamide], the IC50 is 5.3 ± 1.3 µM in test [1] (setting [15]); more than 100 µM in test [5] (Table 2, n = 3); more than 100 µM in test [3] (setting [16]); 9.1 ± 0.5 µM in test [4] (setting [17]); 35.8 ± 3.4 µM in test [6] (Table 2, n = 3).

With `COc1cccc(C(=O)Nc2cc3ccc(O[C@@H]4OC(C)(C)[C@H](OC)[C@@H](O)[C@H]4O)c(C)c3oc2=O)c1` [compound 10, N-(7-((2R,3R,4S,5R)-3,4-Dihydroxy-5-methoxy-6,6-dimethyltetrahydro-2H-pyran-2-yloxy)-8-methyl-2-oxo-2H-chromen-3-yl)-3-methoxybenzamide], the IC50 in test [1] (setting [15]) is 5.6 ± 2.5 µM; in test [5] (Table 2, n = 3), 1.9 ± 0.6 µM; in test [2] (setting [18]), 21.7 ± 2 µM; in test [3] (setting [16]) it was more than 100 µM; in test [6] (Table 2, n = 3), 2.8 ± 0.8 µM.

As for `CO[C@@H]1[C@@H](O)[C@@H](O)[C@H](Oc2ccc3cc(NC(=O)c4ccccc4[N+](=O)[O-])c(=O)oc3c2C)OC1(C)C` [compound 15, N-(7-((2R,3R,4S,5R)-3,4-Dihydroxy-5-methoxy-6,6-dimethyltetrahydro-2H-pyran-2-yloxy)-8-methyl-2-oxo-2H-chromen-3-yl)-2-nitrobenzamide], the IC50 in test [1] (setting [15]) turned out to be 28.7 ± 4.8 µM; in test [5] (Table 2, n = 3), 44.3 ± 4.8 µM; in test [2] (setting [18]), 16.8 ± 0.8 µM; in test [3] (setting [16]), 21.8 ± 0.8 µM; in test [6] (Table 2, n = 3), 20.1 ± 4.7 µM.

`CO[C@@H]1[C@@H](O)[C@@H](O)[C@H](Oc2ccc3cc(NC(=O)c4cccc([N+](=O)[O-])c4)c(=O)oc3c2C)OC1(C)C` [compound 16, N-(7-((2R,3R,4S,5R)-3,4-Dihydroxy-5-methoxy-6,6-dimethyltetrahydro-2H-pyran-2-yloxy)-8-methyl-2-oxo-2H-chromen-3-yl)-3-nitrobenzamide]: the IC50 was more than 100 µM in test [1] (setting [15]); more than 100 µM in test [5] (Table 2, n = 3); more than 100 µM in test [3] (setting [16]); more than 100 µM in test [4] (setting [17]); more than 100 µM in test [6] (Table 2, n = 3).

In the case of `CO[C@@H]1[C@@H](O)[C@@H](O)[C@H](Oc2ccc3cc(NC(=O)OCc4ccccc4)c(=O)oc3c2C)OC1(C)C` [compound 24, Benzyl 7-((2R,3R,4S,5R)-3,4-dihydroxy-5-methoxy-6,6-dimethyltetrahydro-2H-pyran-2-yloxy)-8-methyl-2-oxo-2H-chromen-3-ylcarbamate], the IC50 came out at 12.1 ± 0.1 µM in test [1] (Table 3, n = 3, read-out: IC50 MCF-7); 13 ± 0.2 µM in test [5] (Table 3, n = 3); 17.8 ± 2.4 µM in test [3] (Table 3, n = 3, read-out: IC50 SkBr3); 11.4 ± 0.6 µM in test [6] (Table 3, n = 3).
